This is an account of results in patent US20170035011A1, “METHODS OF IMPROVING GERMINATION OF PLANT EMBRYOS” (WEYERHAEUSER NR COMPANY, priority 2015, published 2017).

For one assay, the system named is loblolly pine embryos. Put plainly: Germination and germinant organ lengths of resulting embryos, Example 2. The format is in vivo.
The next assay concerns manufactured seed. The experiment in a line: Root initiation with palatinose in synthetic gametophyte of manufactured seed. Format: in vivo. The conditions noted are these: palatinose from 0 to 40 g/l in 20 g/l increments; base sugar sucrose or glucose. An excerpt:
The beneficial properties of palatinose are not limited to multiplication. The addition of palatinose to the synthetic gametophyte of manufactured seed has benefits for root initiation. […] This is true when the base sugar was sucrose or glucose.

The test system of the next assay is loblolly pine SE. Put plainly: Development stage studies with palatinose in maltose and glucose media. Format: cell-based. As to conditions: standard maltose and glucose media. From the text: In loblolly pine SE studies, palatinose was initially used as a non-metabolizable sugar for supplementing osmotic level. […] When used as a part of liquid multiplication media its effect depended on the sugar moieties it was associated with, and its ratio with those moieties. When paired with maltose alone, growth was largely or completely halted depending on sugar ratio, whereas when used with glucose, growth was like control (maltose only).

Structures are written as SMILES.

Source text for loblolly pine embryos: As used herein, the term “germination” refers to a physiological process that results in the elongation and growth of a plant embryo organs (root, hypocotyls, cotyledons) and initiation of leaves (epicotyl by the shoot apex located at the base of the cotyledons) after 1 week in the dark followed by 6 weeks in a light room at room temperature.
As used herein, the term “category 1” germination is defined by presence of a minimum of a 3 mm root, and a tuft of at least 5 epicotyl leaves, each approximately 5 mm long.
“Category 2” germination is defined as for category 1, but where epicotyls leaf presence is observed, but not meeting the 5 leaves by 5 mm length specification.
Several parameters may be measured to determine the quality of the germinants, such as root, hypocotyl, longest cotyledon leaf length, and epicotyls leaf length. […]
The responses analyzed for this report are the weekly growth, embryos per d-frame, category 1 germination, and for category 1+2: germination, germinants per d-frame, root length, the hypocotyl length, and the epicotyl length.
The proportion responses are analyzed using a generalized linear model with a logit link and binomial distribution after categorizing as a 0/1 response. The continuous responses were analyzed with a mixed linear model after taking the log transformation to account for increasing variability with higher means. […]

For `O=C(CO)[C@@H](O)[C@H](O)[C@H](O)CO[C@H]1O[C@H](CO)[C@@H](O)[C@H](O)[C@H]1O` [palatinose, 6-O-α-d-glucopyranosyl-D-fructose], the “category 1 germination percentage” value in the assay with loblolly pine embryos (combining the outcomes of 3, 5, and 7 weeks of treatment) is recorded as 9.1%. In the assay with manufactured seed, the root presence result is “root presence improved”. Also, the embryo formation entry in the assay on loblolly pine SE was “inhibited embryo formation”.
For the compound `OC[C@H]1O[C@H](O[C@H]2O[C@H](CO)[C@@H](O)[C@H](O)[C@H]2O)[C@H](O)[C@@H](O)[C@@H]1O` [trehalose], the “Category 1 germination” value in the assay on loblolly pine embryos (Table 7 comparison) was “no evidence that adding trehalose had an effect”.
